Patent publication US20220289719A1, “HETEROCYCLIC COMPOUNDS AS MNK INHIBITORS” (NANJING INNOCARE PHARMA TECH CO., LTD., priority 2017, published 2022)
pIC50: −log10 of the molar value. Structures can show the parent of a compound that is named as a salt.

Tests used:
[1] = test system: MV-4-11 cells; test: MV-4-11 cell proliferation inhibition assay (CellTiter-Glo luminescent cell viability); assay type: cell-based; conditions: Homo sapiens, MV4-11, 120 hours, CTG readout, 8 concentration points
Experimental: MV-4-11 Cell Proliferation Inhibition Assay:
The effect of the compounds of the present invention on the proliferation of MV-4-11 cells was evaluated using a luminescent cell viability assay.
The experimental methods are summarized as follows:
The cell proliferation status of MV-4-11 was detected using the CellTilter-Glo (CTG) assay kit: the luminescence signal generated in the assay is proportional to the number of viable cells in the culture medium by using a unique, stable luciferase to detect viable cell metabolism indicator ATP.
CellTilter-Glo reagent (Promega, G7572) consists of CellTilter-Glo lyophilized powder and ellTilter-Glo buffer, which can be used to dissolve the lyophilized powder into the buffer.
MV-4-11 cells (ATCC #CRL-9591, purchased from Nanjing Kezhen, item number CBP60522) were cultured in IMDM complete medium (Thermofisher, 12440053) containing 10% FBS (GBICO, 10099-141) and 100 units/ml streptomycin mixture (Thermofisher, 15140122). when the cells coverage rearched 80-90% in the culture container, dilute and plant with 0.25% trypsin (including EDTA) (Thermofisher, 25200056) in a white 384-well plate (Thermofisher, 164610), 400 cells per well (36 μl […] complete medium), then 384-well plates were incubated overnight (18-20 hours) in a 37° C., % CO2 incubator.
Compounds were solubilized to 10 mM in 100% DMSO, then sequentially diluted in 4-fold with DMSO to a minimum concentration of […], and each concentration was diluted 50-fold with FBS-free IMDM medium. If the compound IC50 value is very low, the initial concentration of the compound can be lowered. 4 μl of the diluted IMDM compound was added to each well and mixed gently by centrifugation. The GI50 (50% Growth Inhibition) of the compounds was determined in this experiment, including the T0 group before the cell proliferation (including the T0 positive and T0 negative control groups), and the T5 group after 120 hours of cell proliferation (containing the T5 positive and T5 negative control groups).). T0 represents the number of cells before cell proliferation before compound addition, including positive control: the group with the addition of cells and 0.2% DMSO was used as the positive control. The group with medium alone was used as the negative control, T0 group before the addition of compound will be used for CTG test. […] Gently shake for 5 minutes to ensure sufficient cell lysis, leave for 10 minutes to stabilize the luminescence signal, and then read the luminescence signal with EnVision (Perkin Elmer).
The inhibition of MV-4-11 cell proliferation of the compounds was calculated by the following formula: […]
The IC50 value of the compound was calculated from the 8 concentration points by XLfit (ID Business Solutions Ltd., UK) software using the following formula: […]

[2] = biological target: T1, Human recombinant full-length MNK1 protein (Homo sapiens, UniProt Q9BUB5); test: MNK1 inhibitory activity assay (ADP-Glo in vitro kinase assay); assay type: biochemical; conditions: 10 concentration points
T1 construct: Human recombinant full-length MNK1 protein; purchased Thermo PR9138A
Experimental: MNK1 Inhibitory Activity Assay: Evaluation of the effects of compounds of the invention on […] (MNK1) activity using in vitro kinase assays. The experimental methods are summarized as follows: The in vitro activity of MNK1 was determined by measuring the level of ADP produced in the kinase reaction using the ADP-Glo Kinase Assay Kit. The reaction buffer consisted of the following components: 50 mM HEPES, pH 7.5, 10 mM MgCl2, 1 mM EGTA, 0.01% Brij35. Human recombinant full-length MNK1 protein (Thermo, Cat. No. PR9138A) was diluted with a reaction buffer to a 3.13 ng/uL kinase solution. The substrate reaction solution consisted of a substrate diluted to 0.75 mg/ml in reaction buffer ([…], available from […] Domestic Company), 2250 uM ATP, the ADP-Glo reagent and kinase assay solution from Promega kit (Promega, V9102). […] If the compound IC50 value is very low, the initial concentration of the compound can be lowered. To a 384-well assay plate (Thermo, Cat. No. 264706) were added 1 uL of compound solution and 2 uL of MNK1 kinase solution. The mixture was mixed well and incubated for 30 minutes at room temperature; then 2 uL of substrate reaction solution was added, the reaction mixture was incubated for 120 minutes at room temperature. The reaction was terminated after an equal volume of 5uLADP-Glo solution was added, and the remaining ATP was completely consumed. After mixing for 60 minutes at room temperature, 10 ul of the kinase assay solution was added, and the mixture was uniformly mixed, and allowed to stand at room temperature for 40 minutes in the dark. The detection solution converts ADP into new ATP through coupled luciferase/luciferin, and ATP is converted into optical signal by Ultr-GloTM luciferase, which can be detected by Envision. The intensity of the light signal is proportional correlated with the amount of ADP produced in the kinase reaction, therefore, the activity of MNK1 kinase can be determined. In this experiment, the group without protein was used as a negative control (100% inhibition). The group with protein but without compounds was used as a positive control (0% inhibition).

T1 sequence (Q9BUB5 whole entry): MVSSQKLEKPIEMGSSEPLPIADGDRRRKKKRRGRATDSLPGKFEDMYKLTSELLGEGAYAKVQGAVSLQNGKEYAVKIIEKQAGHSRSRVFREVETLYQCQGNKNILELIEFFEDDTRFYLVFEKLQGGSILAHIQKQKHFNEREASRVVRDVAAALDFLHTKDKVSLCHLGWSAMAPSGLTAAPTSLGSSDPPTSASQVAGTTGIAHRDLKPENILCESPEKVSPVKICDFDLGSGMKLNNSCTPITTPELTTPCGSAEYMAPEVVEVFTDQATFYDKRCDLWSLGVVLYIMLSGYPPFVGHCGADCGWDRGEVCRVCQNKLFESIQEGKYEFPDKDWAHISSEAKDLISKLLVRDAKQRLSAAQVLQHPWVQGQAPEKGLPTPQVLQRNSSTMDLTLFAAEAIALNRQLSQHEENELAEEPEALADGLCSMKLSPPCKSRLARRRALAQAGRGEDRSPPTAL

Compound	pIC50 [1]	pIC50 [2]
COc1cc2[nH]ncc2cc1Nc1cc(NC(=O)C2CC2)ncn1 [Compound 4, 5-(6-Cyclopropionamidopyrimidin-4-ylamino)-6-methoxy-1H-indazole]	6.52	8.84
CCOC(=O)c1c(N)ncnc1Nc1cc2cnn(C(=O)OC(C)(C)C)c2cc1OC [Compound 35, 1-tert-Butoxycarbonyl-5-((6-amino-5-ethoxycarbonylpyrimidin-4-yl)amino)-6-methoxyindazole]	–	7.49
CCOC(=O)n1ncc2cc(Nc3cc(NC(=O)C4CC4)ncn3)c(OC)cc21 [Compound 18, 1-Ethoxyacyl-5-(6-cyclopropionamidopyrimidin-4-ylamino)-6-methoxyindazole]	–	7.98

Second part, the compound after the results:

pIC50 [1]	pIC50 [2]	Compound
6.56	8.30	COc1c(Nc2cc(Nc3cnccn3)ncn2)ccc2c1CNC2=O [Compound 84, 5-((6-(Pyrazin-2-ylamino)pyrimidin-4-yl)amino)-4-methoxyisodihydroindol-1-one formate]
6.53	8.09	COc1c(Nc2cc(Nc3ccccn3)ncn2)ccc2c1CNC2=O [Compound 68, 5-((6-(Pyridin-2-ylamino)pyrimidin-4-yl)amino)-4-methoxyisodihydroindol-1-one]
6.32	8.57	COc1c(Nc2cc(NC(=O)C3CC3)ncn2)ccc2c1CNC2=O [Compound 67, 5-((6-Cyclopropanamidopyrimidin-4-yl)amino)-4-methoxyisodihydroindole-1-one]
